From the NIST ThermoML archive (doi:10.1021/je060490w)
Numbers after ± are expanded uncertainties.

Assay: xn = mol fraction of the nth substance listed
Conditions: Pendant drop shape

CCOC(C)OCC [1,1-diethoxyethane] + Cc1cc(C)cc(C)c1
Conditions | surface tension liquid-gas [mN/m]
298.15 K, x1 = 0.0491 | 27.45 ± 0.31
298.15 K, x1 = 0.1013 | 26.91 ± 0.3
298.15 K, x1 = 0.1538 | 26.36 ± 0.3
298.15 K, x1 = 0.1996 | 25.83 ± 0.29
298.15 K, x1 = 0.2501 | 25.34 ± 0.29
298.15 K, x1 = 0.3009 | 24.81 ± 0.29
298.15 K, x1 = 0.3501 | 24.37 ± 0.28
298.15 K, x1 = 0.4067 | 23.83 ± 0.28
298.15 K, x1 = 0.4506 | 23.45 ± 0.27
298.15 K, x1 = 0.4997 | 23.04 ± 0.27
298.15 K, x1 = 0.5523 | 22.62 ± 0.27
298.15 K, x1 = 0.601 | 22.26 ± 0.26
298.15 K, x1 = 0.6508 | 21.92 ± 0.26
298.15 K, x1 = 0.7006 | 21.64 ± 0.26
298.15 K, x1 = 0.7507 | 21.43 ± 0.26
298.15 K, x1 = 0.8014 | 21.2 ± 0.26
298.15 K, x1 = 0.851 | 21.09 ± 0.26
298.15 K, x1 = 0.8994 | 21.02 ± 0.26
298.15 K, x1 = 0.9487 | 20.95 ± 0.26
298.15 K, x1 = 1 | 20.88 ± 0.25
308.15 K, x1 = 0.0488 | 26.55 ± 0.3
308.15 K, x1 = 0.1009 | 25.97 ± 0.29
308.15 K, x1 = 0.1495 | 25.4 ± 0.29
308.15 K, x1 = 0.1991 | 24.86 ± 0.29
308.15 K, x1 = 0.2498 | 24.32 ± 0.28
308.15 K, x1 = 0.3014 | 23.84 ± 0.28
308.15 K, x1 = 0.3503 | 23.35 ± 0.27
308.15 K, x1 = 0.4004 | 22.89 ± 0.27
308.15 K, x1 = 0.4508 | 22.44 ± 0.27
308.15 K, x1 = 0.5011 | 22.03 ± 0.26
308.15 K, x1 = 0.5503 | 21.61 ± 0.26
308.15 K, x1 = 0.5979 | 21.25 ± 0.26
308.15 K, x1 = 0.6511 | 20.9 ± 0.25
308.15 K, x1 = 0.6997 | 20.62 ± 0.25
308.15 K, x1 = 0.7503 | 20.33 ± 0.25
308.15 K, x1 = 0.7977 | 20.15 ± 0.25
308.15 K, x1 = 0.8462 | 20.04 ± 0.25
308.15 K, x1 = 0.8993 | 19.95 ± 0.25
308.15 K, x1 = 0.9418 | 19.93 ± 0.25
308.15 K, x1 = 1 | 19.89 ± 0.25
313.15 K, x1 = 0.0487 | 26.09 ± 0.29
313.15 K, x1 = 0.0991 | 25.49 ± 0.29
313.15 K, x1 = 0.1507 | 24.91 ± 0.29
313.15 K, x1 = 0.1999 | 24.37 ± 0.28
313.15 K, x1 = 0.2468 | 23.86 ± 0.28
313.15 K, x1 = 0.3001 | 23.34 ± 0.27
313.15 K, x1 = 0.3501 | 22.83 ± 0.27
313.15 K, x1 = 0.4008 | 22.38 ± 0.26
313.15 K, x1 = 0.4502 | 21.95 ± 0.26
313.15 K, x1 = 0.5 | 21.54 ± 0.26
313.15 K, x1 = 0.5495 | 21.12 ± 0.26
313.15 K, x1 = 0.6005 | 20.73 ± 0.25
313.15 K, x1 = 0.6506 | 20.4 ± 0.25
313.15 K, x1 = 0.7005 | 20.11 ± 0.25
313.15 K, x1 = 0.7514 | 19.8 ± 0.25
313.15 K, x1 = 0.7996 | 19.63 ± 0.25
313.15 K, x1 = 0.8494 | 19.52 ± 0.24
313.15 K, x1 = 0.9003 | 19.48 ± 0.24
313.15 K, x1 = 0.9498 | 19.44 ± 0.24
313.15 K, x1 = 1 | 19.42 ± 0.24

CCOC(C)OCC [1,1-diethoxyethane] + Cc1ccc(C)c(C)c1
Conditions | surface tension liquid-gas [mN/m]
298.15 K, x1 = 0.05 | 28.51 ± 0.32
298.15 K, x1 = 0.1 | 27.76 ± 0.31
298.15 K, x1 = 0.151 | 26.97 ± 0.31
298.15 K, x1 = 0.2005 | 26.29 ± 0.3
298.15 K, x1 = 0.2511 | 25.71 ± 0.3
298.15 K, x1 = 0.3005 | 25.14 ± 0.29
298.15 K, x1 = 0.3526 | 24.6 ± 0.29
298.15 K, x1 = 0.401 | 24.16 ± 0.28
298.15 K, x1 = 0.4538 | 23.73 ± 0.28
298.15 K, x1 = 0.5034 | 23.35 ± 0.28
298.15 K, x1 = 0.5513 | 23.01 ± 0.27
298.15 K, x1 = 0.5998 | 22.7 ± 0.27
298.15 K, x1 = 0.6519 | 22.41 ± 0.27
298.15 K, x1 = 0.7012 | 22.08 ± 0.26
298.15 K, x1 = 0.7499 | 21.85 ± 0.26
298.15 K, x1 = 0.8003 | 21.58 ± 0.26
298.15 K, x1 = 0.8491 | 21.42 ± 0.26
298.15 K, x1 = 0.9 | 21.21 ± 0.26
298.15 K, x1 = 0.9399 | 21.09 ± 0.26
298.15 K, x1 = 1 | 20.88 ± 0.25
308.15 K, x1 = 0.0488 | 27.35 ± 0.31
308.15 K, x1 = 0.0993 | 26.53 ± 0.3
308.15 K, x1 = 0.1486 | 25.79 ± 0.3
308.15 K, x1 = 0.2003 | 25.09 ± 0.29
308.15 K, x1 = 0.2497 | 24.51 ± 0.29
308.15 K, x1 = 0.3001 | 23.95 ± 0.28
308.15 K, x1 = 0.3499 | 23.47 ± 0.28
308.15 K, x1 = 0.4004 | 23.02 ± 0.27
308.15 K, x1 = 0.4534 | 22.6 ± 0.27
308.15 K, x1 = 0.5016 | 22.23 ± 0.27
308.15 K, x1 = 0.55 | 21.9 ± 0.26
308.15 K, x1 = 0.6017 | 21.54 ± 0.26
308.15 K, x1 = 0.6514 | 21.24 ± 0.26
308.15 K, x1 = 0.7003 | 20.96 ± 0.26
308.15 K, x1 = 0.7498 | 20.72 ± 0.25
308.15 K, x1 = 0.8007 | 20.46 ± 0.25
308.15 K, x1 = 0.8502 | 20.28 ± 0.25
308.15 K, x1 = 0.8989 | 20.09 ± 0.25
308.15 K, x1 = 0.9488 | 19.95 ± 0.25
308.15 K, x1 = 1 | 19.89 ± 0.25
313.15 K, x1 = 0.0498 | 26.73 ± 0.3
313.15 K, x1 = 0.0992 | 25.91 ± 0.3
313.15 K, x1 = 0.1501 | 25.09 ± 0.29
313.15 K, x1 = 0.2003 | 24.46 ± 0.29
313.15 K, x1 = 0.2496 | 23.86 ± 0.28
313.15 K, x1 = 0.3027 | 23.34 ± 0.28
313.15 K, x1 = 0.3505 | 22.89 ± 0.27
313.15 K, x1 = 0.4 | 22.43 ± 0.27
313.15 K, x1 = 0.4501 | 22.05 ± 0.26
313.15 K, x1 = 0.499 | 21.67 ± 0.26
313.15 K, x1 = 0.5463 | 21.37 ± 0.26
313.15 K, x1 = 0.6011 | 20.95 ± 0.26
313.15 K, x1 = 0.6503 | 20.68 ± 0.25
313.15 K, x1 = 0.7002 | 20.4 ± 0.25
313.15 K, x1 = 0.7491 | 20.14 ± 0.25
313.15 K, x1 = 0.7998 | 19.91 ± 0.25
313.15 K, x1 = 0.8507 | 19.72 ± 0.25
313.15 K, x1 = 0.899 | 19.53 ± 0.25
313.15 K, x1 = 0.9497 | 19.45 ± 0.24
313.15 K, x1 = 1 | 19.42 ± 0.24

Cc1ccc(C)c(C)c1 [1,2,4-trimethylbenzene] + COC(C)(C)OC
x2 = 0
Conditions | surface tension liquid-gas [mN/m]
298.15 K | 29.3 ± 0.33
308.15 K | 28.24 ± 0.32
313.15 K | 27.71 ± 0.31
